Where two headings read alike, the source gives them in different places. Non-standard residues stand in square brackets, D forms with d. Residues, ends and D or L forms follow the SMILES beside them. *: point of attachment. X1 = COC(=O)C[C@@H](O)[C@H](CC(C)C)N*; Benzenesulfonyl = O=S(=O)(c1ccccc1)*; Benzylsulfonyl = O=S(=O)(Cc1ccccc1)*; Sta = CC(C)C[C@H](N)[C@@H](O)CC(=O)O; Butanoyl(3,3-Me2) = CC(C)(C)CC(=O)*; Hydrocinnamoyl = O=C(CCc1ccccc1)*; X2 = O=C(NCCS(=O)(=O)*)OCc1ccccc1; Isovaleryl = CC(C)CC(=O)*; Nle = CCCC[C@H](N)C(=O)O; Nva = CCC[C@H](N)C(=O)O; Cbz = O=C(OCc1ccccc1)*; Boc = CC(C)(C)OC(=O)*
Assays:
[1] = target: T1, human plasma renin activity (Homo sapiens, UniProt P00797); test: Inhibition of the human plasma renin activity (P.R.A.); assay type: biochemical; conditions: 37° C., pool of human plasma
T1 construct: the human plasma contain and the substrate: angiotensinogen, and the enzyme: renin; from tissue; host or cells: pool of human plasma
T1 sequence (P00797 67-406): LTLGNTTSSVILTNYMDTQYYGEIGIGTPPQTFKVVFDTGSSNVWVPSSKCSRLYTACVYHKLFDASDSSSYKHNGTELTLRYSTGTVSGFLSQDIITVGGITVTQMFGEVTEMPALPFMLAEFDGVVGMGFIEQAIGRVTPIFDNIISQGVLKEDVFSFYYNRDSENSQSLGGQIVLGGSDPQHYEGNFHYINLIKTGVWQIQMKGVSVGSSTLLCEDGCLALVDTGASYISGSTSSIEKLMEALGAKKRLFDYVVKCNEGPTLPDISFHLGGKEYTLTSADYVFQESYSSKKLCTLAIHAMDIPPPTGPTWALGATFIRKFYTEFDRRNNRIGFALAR
Procedure: The angiotensin I released during the reaction (the human plasma contain and the substrate: angiotensinogen, and the enzyme: renin) is measured by radioimmunological determination using a kit.
Of course, an inhibitor of the enzyme for conversion of the PMSF (phenylmethylsulphonyl fluoride) is added to the incubation medium.
Two types of experiments were carried out:
one at pH 6, which is the optimum pH for the enzyme reaction with human renin (maleate buffer, incubation: 30 minutes), and
the other at pH 7.4, which is the physiological pH (phosphate buffer, incubation: 60 minutes).
(§1) A 10^-3 M stock solution of the peptide is made up in a mixture containing equal volumes of a solution A (19 ml of methanol+1 ml of acetic acid) and a solution B (4 ml of methanol+2 ml of sodium hydroxide solution).
(§2) The subsequent dilutions of the peptide are then prepared in the appropriate buffer in accordance with the procedures described above.

porcine pepsin = porcine pepsin (Sus scrofa, UniProt P00791); test: Inhibition of porcine pepsin; assay type: biochemical; conditions: pH 2, substrate bovine haemoglobin, 37° C.
Chain of porcine pepsin (P00791 60-385): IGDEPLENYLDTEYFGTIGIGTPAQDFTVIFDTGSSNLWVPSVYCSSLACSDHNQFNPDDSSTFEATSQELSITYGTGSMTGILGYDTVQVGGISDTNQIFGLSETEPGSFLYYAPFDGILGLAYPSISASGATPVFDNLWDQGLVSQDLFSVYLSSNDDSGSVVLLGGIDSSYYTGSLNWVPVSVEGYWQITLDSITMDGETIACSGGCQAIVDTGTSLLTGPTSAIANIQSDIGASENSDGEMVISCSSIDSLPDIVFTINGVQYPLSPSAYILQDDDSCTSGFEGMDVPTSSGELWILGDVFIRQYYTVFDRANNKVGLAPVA
Procedure: The method used is that of TAKAAKI AOYAGI (J. Antibiotics, 24, pages 687-694, 1971). The substrate used is bovine haemoglobin and the enzyme is porcine pepsin.
0.5% strength haemoglobin is hydrolysed with pepsin (1 mcg/ml) at 37° C. in 0.02M KCl-HCl buffer at pH 2.
Preincubation takes place for 3 minutes, followed by incubation for 25 minutes. After precipitation of the proteins with 1.7M perchloric acid, the optical density of the supernatant is determined on a spectrophotometer at 280 nm.
The results are expressed as the percentage inhibition of the maximum optical density obtained in the absence of inhibitor. They are also expressed as an IC50.
as §1, §2

[2] = pH 6, maleate buffer, incubation 30 minutes, read-out: INHIBITION OF HUMAN P.R.A. (IC50) pH 6
[3] = pH 7.4, phosphate buffer, incubation 60 minutes, read-out: INHIBITION OF HUMAN P.R.A. (IC50) pH 7.4

| IC50 [1, 2] | IC50 [1, 3] | IC50 (porcine pepsin) | SMILES |
| --- | --- | --- | --- |
| 17 nM | 3500 nM | 30 nM | COC(=O)C[C@H](O)[C@H](CC(C)C)NC(=O)[C@H](C)NC(=O)C[C@H](O)[C@H](CC(C)C)NC(=O)[C@H](Cc1ccccc1)NC(=O)[C@H](Cc1ccccc1)NC(=O)OCc1ccccc1 [SR 41320, Z--Phe--Phe--Sta--Ala--Sta--OMe] (Cbz-FF[Sta]A[Sta]-OMe) |
| 35 nM | 1000 nM | 38 nM | CC[C@H](C)[C@H](NC(=O)[C@H](Cc1ccccc1)NC(=O)OCc1ccccc1)C(=O)N[C@@H](CC(C)C)[C@@H](O)CC(=O)N[C@@H](C)C(=O)N[C@@H](CC(C)C)[C@@H](O)CC(=O)OC [SR 41477, Z--Phe--ILe--Sta--Ala--Sta--OMe] (Cbz-FI[Sta]A[Sta]-OMe) |
| 950 nM |  | 480 nM | COC(=O)C[C@H](O)[C@H](CC(C)C)NC(=O)[C@H](C)NC(=O)C[C@H](O)[C@H](CC(C)C)NC(=O)[C@H](Cc1ccccc1)NC(=O)[C@@H](Cc1ccccc1)NC(=O)OC(C)(C)C [SR 41518, Boc--(D)Phe--Phe--Sta--Ala--Sta--OMe] (Boc-[dF]F[Sta]A[Sta]-OMe) |
| 12 nM | 310 nM | 42 nM | COC(=O)C[C@H](O)[C@H](CC(C)C)NC(=O)[C@H](C)NC(=O)C[C@H](O)[C@H](CC(C)C)NC(=O)[C@H](Cc1ccccc1)NC(=O)[C@H](Cc1ccccc1)NC(=O)CC(C)C [SR 41764, iVa--Phe--Phe--Sta--Ala--Sta--OMe] (Isovaleryl-FF[Sta]A[Sta]-OMe) |
| 14 nM | 420 nM | 58 nM | COC(=O)C[C@@H](O)[C@H](CC(C)C)NC(=O)[C@H](C)NC(=O)C[C@H](O)[C@H](CC(C)C)NC(=O)[C@H](Cc1ccccc1)NC(=O)[C@H](Cc1ccccc1)NC(=O)CC(C)C [SR 41766, iVa--Phe--Phe--Sta--Ala--isoSta--OMe] (Isovaleryl-FF[Sta]A-X1) |
| 50 nM | 1000 nM | 42 nM | COC(=O)C[C@H](O)[C@H](CC(C)C)NC(=O)[C@H](C)NC(=O)C[C@H](O)[C@H](CC(C)C)NC(=O)[C@H](Cc1ccccc1)NC(=O)[C@H](Cc1ccccc1)NC(=O)CCc1ccccc1 [SR 41768, C6 H5 CH2 CH2 CO--Phe--Phe--Sta--Ala--Sta--OMe] (Hydrocinnamoyl-FF[Sta]A[Sta]-OMe) |
| 1.6 nM | 440 nM | 63 nM | COC(=O)C[C@H](O)[C@H](CC(C)C)NC(=O)[C@H](C)NC(=O)C[C@H](O)[C@H](CC(C)C)NC(=O)[C@H](Cc1ccccc1)NC(=O)[C@H](Cc1ccccc1)NS(=O)(=O)c1ccccc1 [SR 41938, C6 H5 SO2 --Phe--Phe--Sta--Ala--Sta--OCH3] (Benzenesulfonyl-FF[Sta]A[Sta]-OMe) |
| 17 nM | 880 nM | 36 nM | COC(=O)C[C@H](O)[C@H](CC(C)C)NC(=O)[C@H](C)NC(=O)C[C@H](O)[C@H](CC(C)C)NC(=O)[C@H](Cc1ccccc1)NC(=O)[C@H](Cc1ccccc1)NS(=O)(=O)Cc1ccccc1 [SR 41939, C6 H5 CH2 SO2 --Phe--Phe--Sta--Ala--Sta--OCH3] (Benzylsulfonyl-FF[Sta]A[Sta]-OMe) |
| 0.76 nM | 260 nM | 13 nM | CCC[C@H](NC(=O)[C@H](Cc1ccccc1)NC(C)=O)C(=O)N[C@@H](CC(C)C)[C@@H](O)CC(=O)N[C@@H](C)C(=O)N[C@@H](CC(C)C)[C@@H](O)CC(=O)OC [SR 41994, Ac--Phe--Nva--Sta--Ala--Sta--OMe] (Ac-F[Nva][Sta]A[Sta]-OMe) |
| 0.0011 nM | 51 nM |  | CCC[C@H](NC(=O)[C@H](Cc1ccccc1)NC(=O)OC(C)(C)C)C(=O)N[C@@H](CC(C)C)[C@@H](O)CC(=O)N[C@@H](C)C(=O)N[C@@H](CC(C)C)[C@@H](O)CC(=O)OC [SR 41996, Boc--Phe--Nva--Sta--Ala--Sta--OMe] (Boc-F[Nva][Sta]A[Sta]-OMe) |
| 52 nM | 2600 nM | 27 nM | COC(=O)C[C@H](O)[C@H](CC(C)C)NC(=O)[C@H](C)NC(=O)C[C@H](O)[C@H](CC(C)C)NC(=O)[C@H](CCCCNC(=O)OCc1ccccc1)NC(=O)[C@H](Cc1ccccc1)NC(=O)CC(C)C [SR 42130, iVa--Phe--Lys(Z)--Sta--Ala--Sta--OMe] (Isovaleryl-FK(Cbz)[Sta]A[Sta]-OMe) |
| 26 nM | 480 nM | 27 nM | COC(=O)C[C@H](O)[C@H](CC(C)C)NC(=O)[C@H](C)NC(=O)C[C@H](O)[C@H](CC(C)C)NC(=O)[C@H](Cc1ccccc1)NC(=O)[C@H](Cc1ccccc1)NC(=O)CC(C)(C)C [SR 42256, t--BuAc--Phe--Phe--Sta--Ala--Sta--OMe] ({Butanoyl(3,3-Me2)}-FF[Sta]A[Sta]-OMe) |

Further lines, the molecule ahead of its results:

| SMILES | IC50 [1, 2] | IC50 [1, 3] | IC50 (porcine pepsin) |
| --- | --- | --- | --- |
| CC(C)C[C@H](NC(=O)[C@H](C)NC(=O)C[C@H](O)[C@H](CC(C)C)NC(=O)[C@H](Cc1ccccc1)NC(=O)[C@H](Cc1ccccc1)NC(=O)OCc1ccccc1)[C@@H](O)CC(=O)O [SR 41225, Z--Phe--Phe--Sta--Ala--Sta--OH] (Cbz-FF[Sta]A[Sta]-OH) | 70 nM | 1000 nM | 90 nM |
| COC(=O)C[C@H](O)[C@H](CC(C)C)NC(=O)[C@H](C)NC(=O)C[C@H](O)[C@H](CC(C)C)NC(=O)[C@@H](NC(=O)[C@@H](Cc1ccccc1)NC(=O)OC(C)(C)C)C(C)C [SR 41377, Boc--(D)Phe--Val--Sta--Ala--Sta--OCH3] (Boc-[dF]V[Sta]A[Sta]-OMe) |  |  | 47 nM |
| COC(=O)C[C@H](O)[C@H](CC(C)C)NC(=O)[C@H](C)NC(=O)C[C@H](O)[C@H](CC(C)C)NC(=O)[C@H](Cc1c[nH]c2ccccc12)NC(=O)[C@H](Cc1ccccc1)NC(=O)OCc1ccccc1 [SR 41416, Z Phe--Trp--Sta--Ala--Sta--OMe] (Cbz-FW[Sta]A[Sta]-OMe) | 80 nM | 1400 nM | 65 nM |
| COC(=O)C[C@H](O)[C@H](CC(C)C)NC(=O)[C@H](C)NC(=O)C[C@H](O)[C@H](CC(C)C)NC(=O)[C@@H](NC(=O)[C@H](Cc1ccc(O)cc1)NC(=O)OCc1ccccc1)C(C)C [SR 41476, Z--Tyr--Val--Sta--Ala--Sta--OMe] (Cbz-YV[Sta]A[Sta]-OMe) | 170 nM | 2200 nM | 24 nM |
| CC(C)C[C@H](NC(=O)[C@H](C)NC(=O)C[C@H](O)[C@H](CC(C)C)NC(=O)[C@@H](NC(=O)[C@@H](Cc1ccccc1)NC(=O)OC(C)(C)C)C(C)C)[C@@H](O)CC(=O)O [SR 41491, Boc--(D)Phe--Val--Sta--Ala--Sta--OH] (Boc-[dF]V[Sta]A[Sta]-OH) | 260 nM | 4000 nM | 22 nM |
| COC(=O)C[C@H](O)[C@H](CC(C)C)NC(=O)[C@H](C)NC(=O)C[C@H](O)[C@H](CC(C)C)NC(=O)[C@H](Cc1c[nH]cn1)NC(=O)[C@H](Cc1ccccc1)NS(=O)(=O)CCNC(=O)OCc1ccccc1 [SR 41748, Z--Tau--Phe--His--Sta--Ala--Sta--OCH3] (X2-FH[Sta]A[Sta]-OMe) | 2.2 nM | 110 nM | 620 nM |
| COC(=O)C[C@H](O)[C@H](CC(C)C)NC(=O)[C@H](C)NC(=O)C[C@H](O)[C@H](CC(C)C)NC(=O)[C@H](CC(C)C)NC(=O)[C@H](Cc1ccccc1)NC(=O)CC(C)C [SR 41765, iVa--Phe--Leu--Sta--Ala--Sta--OMe] (Isovaleryl-FL[Sta]A[Sta]-OMe) | 0.33 nM | 75 nM | 8 nM |
| CCC[C@H](NC(=O)[C@H](Cc1ccccc1)NC(=O)CC(C)C)C(=O)N[C@@H](CC(C)C)[C@@H](O)CC(=O)N[C@@H](C)C(=O)N[C@@H](CC(C)C)[C@@H](O)CC(=O)OC [SR 41995, iVa--Phe--Nva--Sta--Ala--Sta--OMe] (Isovaleryl-F[Nva][Sta]A[Sta]-OMe) | 0.03 nM | 42 nM | 16 nM |
| CC[C@H](C)[C@H](NC(=O)OC(C)(C)C)C(=O)N[C@@H](Cc1c[nH]cn1)C(=O)N[C@@H](CC(C)C)[C@@H](O)CC(=O)N[C@@H](C)C(=O)N[C@@H](CC(C)C)[C@@H](O)CC(=O)OC [SR 42019, Boc--Ile--His--Sta--Ala--Sta--OMe] (Boc-IH[Sta]A[Sta]-OMe) | 110 nM |  | 73 nM |
| CCCC[C@H](NC(=O)[C@H](Cc1ccccc1)NC(=O)CC(C)C)C(=O)N[C@@H](CC(C)C)[C@@H](O)CC(=O)N[C@@H](C)C(=O)N[C@@H](CC(C)C)[C@@H](O)CC(=O)O [SR 42128, iVa--Phe--Nle--Sta--Ala--Sta--OH] (Isovaleryl-F[Nle][Sta]A[Sta]-OH) |  |  | 19 nM |

Reference: patent US4481192A, “Acid-protease inhibiting peptide derivatives” (SANOFI, priority 1982, dated 1984)
